Test: Release from reservoir devices submerged in PBS
Type: physicochemical
Details: physiologically-triggerable membrane
Method: The devices were constructed as follows. Two 1 cm diameter disks were punched out of a membrane sheet produced as described above. A 1 cm length of ⅜ inch OD (¼ inch ID) silicone tubing (currently used for catheters) was then cut and a membrane disk was glued to one side of the tube using a LockTite low viscosity quick drying adhesive. (1 inch=2.54 cm) After 30 minutes of drying (under light pressure), the membrane-backed tube was then filled with drug or indicator solution. Sodium fluorescein (100 mg/mL in saline) and bupivacaine (10 mg/mL in saline, as well as bupivacaine powder in a saturated saline solution with solid chunks of drug also added to give a larger drug reservoir for release) were tested. The top membrane was then attached using glue following the same technique as for the bottom membrane and set for 30 minutes under light pressure. […] For flux testing, the devices were submerged in 5 mL of PBS at a specific test temperature, with samples taken at predetermined intervals to track the release kinetics. For the microwave antenna devices, two 0.4 cm […] strips of aluminum foil were glued to the outside of the device, one at the top of the device and the other at the bottom of the device (with a 0.2 mm gap in the center) using the same adhesive.

CCCCN1CCCCC1C(=O)Nc1c(C)cccc1C (centres unmarked) [bupivacaine]
release of bupivacaine from device into PBS (37° C.): below the minimal effective dose
release of bupivacaine from device into PBS (50° C.): above the minimal effective dose

Source: patent US20110212027A1, “RADIATIVE HEATING FOR DRUG DELIVERY AND OTHER APPLICATIONS” (priority 2008, published 2011)
